Test results published in patent publication US6451990B1, “Azithromycin preparation in its noncryst alline and crystalline dihydrate forms” (Astur-Pharma, S.A., priority 1999, dated 2002).
Like-named read-outs stand apart in the source and are kept apart here.

Tests used:
[1] = cited from earlier work; for hygroscopicity of crystalline form: as described in EP 0,298,650
[2] = system: gram-positive and some cases of gram-negative bacteria; details: against gram-positive and some cases of gram-negative bacteria; Kirst, Sides 1989; cited from earlier work
[3] = Hygroscopicity: water uptake under an atmosphere over 75% relative humidity; type: physicochemical; details: for water content: sample containing 3% water at start, atmosphere over 75% relative humidity
Experimental: 4. Hygroscopicity. Two different samples of non-crystalline azithromycin containing 3% water were kept under an atmosphere over 75% relative humidity. After 8 hours, water content in the first sample was 5.3%, while the second one contained 9.9% water after 72 hours.

**Q.** Which results are given for `CC[C@H]1OC(=O)[C@H](C)[C@@H](O[C@H]2C[C@@](C)(OC)[C@@H](O)[C@H](C)O2)[C@H](C)[C@@H](O[C@@H]2O[C@H](C)C[C@H](N(C)C)[C@H]2O)[C@](C)(O)C[C@@H](C)CN(C)[C@H](C)[C@@H](O)[C@]1(C)O` [azithromycin dihydrate, 9-deoxo-9a-aza-9a-methyl-9a-homoerythromycin A dihydrate]?
**A.** hygroscopicity of crystalline form ([1]; dihydrate): non-hygroscopic; percentile water content (kept constant) ([1]; theoretical value 4.6%): 4.5-5%

**Q.** With `CC[C@H]1OC(=O)[C@H](C)[C@@H](O[C@H]2C[C@@](C)(OC)[C@@H](O)[C@H](C)O2)[C@H](C)[C@@H](O[C@@H]2O[C@H](C)C[C@H](N(C)C)[C@H]2O)[C@](C)(O)C[C@@H](C)CN(C)[C@H](C)[C@@H](O)[C@]1(C)O` [azithromycin monohydrate] as the compound, how does the “hygroscopicity of crystalline form” value [1] read?
**A.** The value was “hygroscopic”.

**Q.** Which antimicrobial activity [2] does the source give for `CC[C@H]1OC(=O)[C@H](C)[C@@H](O[C@H]2C[C@@](C)(OC)[C@@H](O)[C@H](C)O2)[C@H](C)[C@@H](O[C@@H]2O[C@H](C)C[C@H](N(C)C)[C@H]2O)[C@](C)(O)C[C@@H](C)CN(C)[C@H](C)[C@@H](O)[C@]1(C)O` [Azithromycin, 9-deoxo-9a-aza-9a-methyl-9a-homoerythromycin A] here?
**A.** The antimicrobial activity was “excellent antimicrobial activity”.

**Q.** Which Hygroscopicity ([3]; conclusion from water uptake over 75% relative humidity) does the source give for `CC[C@H]1OC(=O)[C@H](C)[C@@H](O[C@H]2C[C@@](C)(OC)[C@@H](O)[C@H](C)O2)[C@H](C)[C@@H](O[C@@H]2O[C@H](C)C[C@H](N(C)C)[C@H]2O)[C@](C)(O)C[C@@H](C)CN(C)[C@H](C)[C@@H](O)[C@]1(C)O` [non-crystalline azithromycin, non-crystalline 9-deoxo-9a-aza-9a-methyl-9a-homoerythromycin A] here?
**A.** Its Hygroscopicity is “moderately hygroscopic”.

**Q.** And the water content ([3]; after 8 hours (first sample))?
**A.** Its water content is 5.3%.

**Q.** What about the water content ([3]; after 72 hours (second sample)) of the same compound?
**A.** The water content was 9.9%.
